Patent US9758527B2, “Cyclohexene derivative, preparation method therefor, and pharmaceutical composition for preventing or treating metabolic diseases, containing same as active ingredient” (HYUNDAI PHARM CO., LTD., priority 2014, dated 2017)
Like-named read-outs stand apart in the source and are kept apart here.

Molecular target: T1, G protein-coupled receptor 119 (GPR-119) (Mesocricetus auratus, UniProt A0A1U8CD06)
T1 construct: hamster-derived β-cells containing G protein-coupled receptor 119 (GPR-119), HIT-T15 cells; host or cells: HIT-T15 (hamster pancreatic β-cells)
T1 sequence (A0A1U8CD06 1-334): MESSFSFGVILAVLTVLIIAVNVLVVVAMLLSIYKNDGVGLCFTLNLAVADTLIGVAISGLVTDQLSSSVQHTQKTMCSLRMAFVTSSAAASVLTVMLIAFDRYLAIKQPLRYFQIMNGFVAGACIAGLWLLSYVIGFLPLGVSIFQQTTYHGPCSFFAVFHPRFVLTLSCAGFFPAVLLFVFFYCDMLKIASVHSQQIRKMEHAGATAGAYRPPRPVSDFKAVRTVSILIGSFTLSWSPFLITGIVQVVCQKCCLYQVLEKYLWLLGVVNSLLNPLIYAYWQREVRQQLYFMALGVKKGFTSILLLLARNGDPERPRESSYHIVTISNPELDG
Test: Evaluation of cAMP activity in HIT-T15 cells (HTRF cAMP dynamic kit)
Type: cell-based, hamster
Conditions: cAMP activation
Outline: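 HIT-T15 cells, 60,000/well, treated next day with compound at six concentrations ([…]) for 1 h at 37° C. Lysate cAMP quantified by HTRF competitive immunoassay (D2-cAMP, cryptate anti-cAMP); activity taken as change in FRET signal relative to DMSO.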

[1] = 1 h at 37° C., six concentrations, read-out: EC50
[2] = EC50 (nM), 1 h at 37° C., six concentrations

| Structure (SMILES) | EC50 [1] | EC50 (read-out: EC50 value) | EC50 [2] | EC50 (EC50 value) |
| --- | --- | --- | --- | --- |
| CCc1cnc(N2CCC(COc3ccc(C4=CCC(C(=O)N5CCC(=O)C5)CC4)cc3)CC2)nc1 (stereo not shown) [Example 250, 1-(4-(4-((1-(5-ethylpyrimidin-2-yl)piperidin-4-yl)methoxy)phenyl)cyclohex-3-enecarbonyl)pyrrolidin-3-one] | 12 nM | ≤ 50 nM |  |  |
| CCc1cnc(N2CCC(COc3ccc(C4=CCC(C(=O)N5C/C(=N\OC)C(CO)(CO)C5)CC4)cc3)CC2)nc1 (stereo not shown) [Example 253, (Z)-(3,3-bis(hydroxymethyl)-4-(methoxyimino)pyrrolidin-1-yl)(4-(4-((1-(5-ethylpyrimidin-2-yl)piperidin-4-yl)methoxy)phenyl)cyclohex-3-enyl)methanone] | 9 nM |  |  |  |
| CCc1cnc(N2CCC(COc3ccc(C4=CCC(C(=O)N5C/C(=N\OC)C6(CN(C(=O)OC(C)(C)C)C6)C5)CC4)cc3)CC2)nc1 (stereo not shown) [Example 254, (Z)-tert-butyl 6-(4-(4-((1-(5-ethylpyrimidin-2-yl)piperidin-4-yl)methoxy)phenyl)cyclohex-3-enecarbonyl)-8-(methoxyimino)-2,6-diazaspiro[3.4]octane-2-carboxylate] | 10 nM | ≤ 50 nM |  |  |
| CC(C)(C)OC(=O)N1CCC(COc2ccc(C3=CCC(C(=O)N4CCN(CC5CC5)CC4)CC3)cc2)CC1 (stereo not shown) [Example 256, tert-butyl 4-((4-(4-(4-(cyclopropylmethyl)piperazine-1-carbonyl)cyclohex-1-enyl)phenoxy)methyl)piperidine-1-carboxylate] | 32 nM |  |  |  |
| CC(C)(C)OC(=O)N1CCC(COc2ccc(C3=CCC(C(=O)N4CCC(F)(F)C4)CC3)cc2)CC1 (stereo not shown) [Example 257, tert-butyl 4-((4-(4-(3,3-difluoropyrrolidine-1-carbonyl)cyclohex-1-enyl)phenoxy)methyl)piperidine-1-carboxylate] | 8 nM | ≤ 50 nM |  |  |
| CCc1cnc(N2CCC(COc3ccc(C4=CCC(C(=O)N5CCC(F)(F)C5)CC4)cc3)CC2)nc1 (stereo not shown) [Example 258, (3,3-difluoropyrrolidin-1-yl)(4-(4-((1-(5-ethylpyrimidin-2-yl)piperidin-4-yl)methoxy)phenyl)cyclohex-3-enyl)methanone] | 10 nM | ≤ 50 nM |  |  |
| CC(C)c1noc(N2CCC(COc3ccc(C4=CCC(C(=O)N5CCC(F)(F)C5)CC4)cc3)CC2)n1 (stereo not shown) [Example 259, (3,3-difluoropyrrolidin-1-yl)(4-(4-((1-(3-isopropyl-1,2,4-oxadiazol-5-yl)piperidin-4-yl)methoxy)phenyl)cyclohex-3-enyl)methanone] | 10 nM | ≤ 50 nM |  |  |
| CC(C)(C)OC(=O)N1CCC(COc2ccc(C3=CCC(C(=O)N4CCC5(CC4)OCCO5)CC3)cc2)CC1 (stereo not shown) [Example 263, tert-butyl 4-((4-(4-(1,4-dioxa-8-azaspiro[4.5]decane-8-carbonyl)cyclohex-1-enyl)phenoxy)methyl)piperidine-1-carboxylate] |  |  | 9 nM | ≤ 50 nM |
| CC(C)(C)OC(=O)N1CCC(COc2ccc(C3=CCC(C(=O)N4CCC5(C=Cc6ccccc65)CC4)CC3)cc2)CC1 (stereo not shown) [Example 264, tert-butyl 4-((4-(4-(spiro[indene-1,4′-piperidin]-1′-ylcarbonyl)cyclohex-1-enyl)phenoxy)methyl)piperidine-1-carboxylate] | 18 nM |  |  |  |
| CC(C)(C)OC(=O)N1CCC(COc2ccc(C3=CCC(C(=O)N4CCC(=O)C4)CC3)cc2)CC1 (stereo not shown) [Example 265, tert-butyl 4-((4-(4-(3-oxopyrrolidine-1-carbonyl)cyclohex-1-enyl)phenoxy)methyl)piperidine-1-carboxylate] | 32 nM | ≤ 50 nM |  |  |
| CC(C)c1noc(N2CCC(COc3ccc(C4=CCC(C(=O)N5CCC(C#N)CC5)CC4)cc3)CC2)n1 (stereo not shown) [Example 266, 1-(4-(4-((1-(3-isopropyl-1,2,4-oxadiazol-5-yl)piperidin-4-yl)methoxy)phenyl)cyclohex-3-enecarbonyl)piperidine-4-carbonitrile] | 12 nM | ≤ 50 nM |  |  |
| CC(C)c1noc(N2CCC(COc3ccc(C4=CCC(C(=O)N5CCC6(CC5)OCCO6)CC4)cc3)CC2)n1 (stereo not shown) [Example 267, (4-(4-((1-(3-isopropyl-1,2,4-oxadiazol-5-yl)piperidin-4-yl)methoxy)phenyl)cyclohex-3-enyl)(1,4-dioxa-8-azaspiro[4.5]decan-8-yl)methanone] |  |  | 21 nM | ≤ 50 nM |
| CCO/N=C1/CCN(C(=O)C2CC=C(c3ccc(OCC4CCN(c5ncc(CC)cn5)CC4)cc3)CC2)C1 (stereo not shown) [Example 269, (3-(ethoxyimino)pyrrolidin-1-yl)(4-(4-((1-(5-ethylpyrimidin-2-yl)piperidin-4-yl)methoxy)phenyl)cyclohex-3-enyl)methanone] | 35 nM | ≤ 50 nM |  |  |
| CON=C1CCN(C(=O)C2CC=C(c3ccc(OCC4CCN(C(=O)OC(C)(C)C)CC4)cc3)CC2)CC1 (stereo not shown) [Example 270, tert-butyl 4-((4-(4-(4-(methoxyimino)piperidine-1-carbonyl)cyclohex-1-enyl)phenoxy)methyl)piperidine-1-carboxylate] | 12 nM |  |  |  |
| CC(C)(C)OC(=O)N1CCC(COc2ccc(C3=CCC(C(=O)N4CCC(=NO)CC4)CC3)cc2)CC1 (stereo not shown) [Example 271, tert-butyl 4-((4-(4-(4-(hydroxyimino)piperidine-1-carbonyl)cyclohex-1-enyl)phenoxy)methyl)piperidine-1-carboxylate] | 13 nM | ≤ 50 nM |  |  |
| CC(C)(C)OC(=O)N1CCC(COc2ccc(C3=CCC(C(=O)N4CCC(=O)CC4)CC3)cc2)CC1 (stereo not shown) [Example 272, tert-butyl 4-((4-(4-(4-oxopiperidine-1-carbonyl)cyclohex-1-enyl)phenoxy)methyl)piperidine-1-carboxylate] |  |  | 33 nM | ≤ 50 nM |
| CO/N=C1\CCN(C(=O)C2CC=C(c3ccc(OCC4CCN(C(=O)OC(C)(C)C)CC4)cc3)CC2)C1 (stereo not shown) [Example 273, tert-butyl 4-((4-(4-(3-(methoxyimino)pyrrolidine-1-carbonyl)cyclohex-1-enyl)phenoxy)methyl)piperidine-1-carboxylate] | 11 nM | ≤ 50 nM |  |  |
| CCc1cnc(N2CCC(COc3ccc(C4=CCC(C(=O)N5CCC(=O)CC5)CC4)cc3)CC2)nc1 (stereo not shown) [Example 274, 1-(4-(4-((1-(5-ethylpyrimidin-2-yl)piperidin-4-yl)methoxy)phenyl)cyclohex-3-enecarbonyl)piperidin-4-one] |  |  | 27 nM | ≤ 50 nM |
| CC(C)c1noc(N2CCC(COc3ccc(C4=CCC(C(=O)N5CCC(=O)CC5)CC4)cc3)CC2)n1 (stereo not shown) [Example 275, 1-(4-(4-((1-(3-isopropyl-1,2,4-oxadiazol-5-yl)piperidin-4-yl)methoxy)phenyl)cyclohex-3-enecarbonyl)piperidin-4-one] |  |  | 28 nM | ≤ 50 nM |
| CC(C)c1noc(N2CCC(COc3ccc(C4=CCC(C(=O)N5CCC(=NO)CC5)CC4)cc3)CC2)n1 (stereo not shown) [Example 276, (4-(hydroxyimino)piperidin-1-yl)(4-(4-((1-(3-isopropyl-1,2,4-oxadiazol-5-yl)piperidin-4-yl)methoxy)phenyl)cyclohex-3-enyl)methanone] | 29 nM |  |  |  |
| CON=C1CCN(C(=O)C2CC=C(c3ccc(OCC4CCN(c5nc(C(C)C)no5)CC4)cc3)CC2)CC1 (stereo not shown) [Example 278, (4-(4-((1-(3-isopropyl-1,2,4-oxadiazol-5-yl)piperidin-4-yl)methoxy)phenyl)cyclohex-3-enyl)(4-(methoxyimino)piperidin-1-yl)methanone] | 18 nM | ≤ 50 nM |  |  |
